Results taken from DBAASP.
Values after ≈ are worked out from the molar mass of the structure shown. One block for each compound: values may come before it.

Key:
Test in all cases: ≥ marks a high value that may be exact or a test limit, other limits are often not marked, values filed in µg/mL are converted to µM
[1] = tested on: Staphylococcus aureus ATCC 700698
[2] = tested on: Bacillus subtilis ATCC 6633
[3] = tested on: Escherichia coli ATCC 9637
[4] = tested on: Staphylococcus aureus ATCC 33592
[5] = tested on: Staphylococcus aureus ATCC 29213
[6] = tested on: Staphylococcus aureus ATCC 700699
[7] = tested on: Candida parapsilosis ATCC 22019
Cryptococcus neoformans = tested on: Cryptococcus neoformans
[8] = tested on: Candida albicans ATCC 10231
[9] = tested on: Staphylococcus aureus ATCC BAA-44
[10] = tested on: Klebsiella pneumoniae ATCC 27736
[11] = tested on: Pseudomonas aeruginosa ATCC BAA-427
Sporothrix schenckii = tested on: Sporothrix schenckii
[12] = tested on: Staphylococcus aureus ATCC 25923
[13] = tested on: Salmonella enterica subsp. enterica serovar Typhi Vi+
[14] = tested on: Escherichia coli ATCC 25922
[15] = tested on: Escherichia coli ATCC 35218
[16] = tested on: Salmonella enterica subsp. enterica serovar Typhimurium ATCC 14028
[17] = tested on: Escherichia coli ATCC 11775
[18] = tested on: Escherichia coli CPCC 100521
[19] = tested on: Staphylococcus aureus CPCC 100520
[20] = tested on: Candida albicans CPCC 400416
[21] = tested on: Escherichia coli DH5alpha
Escherichia coli = tested on: Escherichia coli
[22] = tested on: Pseudomonas aeruginosa H188
[23] = tested on: Pseudomonas aeruginosa ATCC 27853
Escherichia coli NDM = tested on: Escherichia coli NDM
[24] = tested on: Bacillus subtilis ATCC 6051
[25] = tested on: Bacillus cereus ATCC 14579
Staphylococcus aureus MR = tested on: Staphylococcus aureus MR
Escherichia coli W3110 = tested on: Escherichia coli W3110
Staphylococcus aureus = tested on: Staphylococcus aureus
[26] = tested on: Acinetobacter baumannii AB5075
[27] = tested on: Bacillus amyloliquefaciens ATCC 23842
Enterococcus faecium = tested on: Enterococcus faecium
[28] = tested on: Enterococcus faecium 5F-10
[29] = tested on: Bacillus licheniformis ATCC 14580
Enterococcus faecalis A4 = tested on: Enterococcus faecalis A4
[30] = tested on: Pseudomonas aeruginosa PA14
[31] = tested on: Enterococcus faecalis 1F-1
[32] = tested on: Staphylococcus aureus 215
Escherichia coli JW3441 = tested on: Escherichia coli JW3441
Escherichia coli JW5831 = tested on: Escherichia coli JW5831
Escherichia coli MG1655 = tested on: Escherichia coli MG1655

MIC [1]: 3 µM (≈ 8.8 µg/mL) | MIC [2]: 3 µM (≈ 8.8 µg/mL) | MIC [3]: 3 µM (≈ 8.8 µg/mL) | MIC [4]: 1.6 µM (≈ 4.69 µg/mL) | MIC [5]: 1.6 µM (≈ 4.69 µg/mL) | MIC [6]: 1.6 µM (≈ 4.69 µg/mL) | MIC [7]: 6.8 µM (≈ 19.9 µg/mL) | MIC (Cryptococcus neoformans): 13.6 µM (≈ 39.9 µg/mL) | MIC [8]: 13.6 µM (≈ 39.9 µg/mL) | MIC [9]: 1.6 µM (≈ 4.69 µg/mL) | MIC [10]: 6.8 µM (≈ 19.9 µg/mL) | MIC [11]: 6.8 µM (≈ 19.9 µg/mL) | MIC (Sporothrix schenckii): 27.2 µM (≈ 79.8 µg/mL) | MIC [12]: 3 µM (≈ 8.8 µg/mL)
Compound: CC[C@H](C)[C@H](NC(=O)[C@H](C)NC(=O)[C@H](CCCCN)NC(=O)[C@@H]1CCCN1C(=O)[C@H](C)NC(=O)[C@H](Cc1cnc[nH]1)NC(=O)[C@@H](NC(=O)[C@H](C)NC(=O)CNC(=O)[C@H](CCCCN)NC(=O)[C@@H](NC(=O)[C@H](CC(C)C)NC(=O)[C@H](Cc1c[nH]c2ccccc12)NC(=O)CNC(=O)[C@H](Cc1ccccc1)NC(=O)[C@@H](N)Cc1ccccc1)[C@@H](C)CC)[C@@H](C)CC)C(=O)N[C@@H](Cc1cnc[nH]1)C(=O)NCC(=O)N[C@@H](CC(C)C)C(=O)N[C@H](C(=O)N[C@@H](Cc1cnc[nH]1)C(=O)N[C@@H](CCCN=C(N)N)C(=O)N[C@@H](CCCN=C(N)N)C(=O)N[C@@H](CCCN=C(N)N)C(=O)N[C@@H](Cc1cnc[nH]1)C(=O)O)[C@@H](C)CC [FFGWLIKGAIHAPKAIHGLIHRRRH]

MIC [13]: 10 µM (≈ 21.7 µg/mL) | MIC [14]: 3.5 µM (≈ 7.6 µg/mL) | MIC [15]: 2 µM (≈ 4.34 µg/mL) | MIC [16]: 10 µM (≈ 21.7 µg/mL) | MIC [17]: 3 µM (≈ 6.51 µg/mL)
Compound: CC[C@H](C)[C@H](NC(=O)[C@@H]1CCCN1C(=O)[C@H](CCCN=C(N)N)NC(=O)[C@@H]1CCCN1C(=O)[C@H](Cc1cnc[nH]1)NC(=O)[C@H](CO)NC(=O)[C@@H](NC(=O)[C@@H]1CCCN1C(=O)[C@H](CCCCN)NC(=O)[C@@H]1CCCN1C(=O)[C@H](CO)NC(=O)[C@H](Cc1ccc(O)cc1)NC(=O)[C@@H]1CCCN1C(=O)[C@H](CCCN=C(N)N)NC(=O)[C@@H]1CCCN1C(=O)[C@H](CCCCN)NC(=O)CN)[C@@H](C)O)C(=O)N[C@@H](CCCN=C(N)N)C(=O)N[C@H](C(=O)O)C(C)C [GKPRPYSPKPTSHPRPIRV]

MIC [18]: ≥ 161 µM | MIC [19]: ≥ 161 µM | MIC [20]: ≥ 161 µM
Compound: CC[C@H](C)[C@H](N)C(=O)N[C@H](C(=O)NCC(=O)N1CCC[C@H]1C(=O)N[C@H](C(=O)N[C@@H](CC(C)C)C(=O)NCC(=O)N[C@@H](CC(C)C)C(=O)N[C@H](C(=O)NCC(=O)N[C@@H](CCCCN)C(=O)N[C@@H](C)C(=O)N[C@@H](CC(C)C)C(=O)NCC(=O)NCC(=O)N[C@@H](CC(C)C)C(=O)N[C@@H](CC(C)C)C(N)=O)C(C)C)C(C)C)[C@@H](C)CC [IIGPVLGLVGKALGGLL]

MIC [21]: 21.5 µM (≈ 64.9 µg/mL) | MIC (Escherichia coli): 42 µM (≈ 127 µg/mL) | MIC [14]: 5.37 µM (≈ 16.2 µg/mL) | MIC [22]: 21.5 µM (≈ 64.9 µg/mL) | MIC [23]: 42 µM (≈ 127 µg/mL)
Compound: CC[C@H](C)[C@H](NC(=O)[C@H](C)NC(=O)[C@H](CCCCN)NC(=O)[C@H](CC(C)C)NC(=O)[C@H](C)NC(=O)[C@@H](NC(=O)[C@H](Cc1cnc[nH]1)NC(=O)[C@H](CC(C)C)NC(=O)[C@H](CCC(=O)O)NC(=O)[C@@H](NC(=O)[C@H](CCCCN)NC(=O)[C@H](CCCCN)NC(=O)[C@H](C)NC(=O)[C@H](CO)NC(=O)[C@H](CCCCN)NC(=O)[C@H](Cc1ccccc1)NC(=O)[C@@H](NC(=O)[C@H](CCCCN)NC(=O)[C@H](CC(C)C)NC(=O)[C@H](Cc1ccccc1)NC(=O)[C@H](CO)NC(=O)[C@H](CCCCN)NC(=O)[C@H](Cc1c[nH]c2ccccc12)NC(=O)[C@H](CCCCN)NC(C)=O)[C@@H](C)O)[C@@H](C)O)[C@@H](C)O)C(=O)N[C@@H](CO)C(=O)N[C@@H](CO)C(N)=O [KWKSFLKTFKSAKKTELHTALKAISS]

MIC (Escherichia coli NDM): 8 µM (≈ 19.4 µg/mL) | MIC [24]: 26.4 µM (≈ 64 µg/mL) | MIC [25]: 26.4 µM (≈ 64 µg/mL) | MIC (Staphylococcus aureus MR): 26.4 µM (≈ 64 µg/mL) | MIC [5]: > 26.4 µM | MIC (Escherichia coli W3110): 4 µM (≈ 9.7 µg/mL) | MIC (Staphylococcus aureus): 13.2 µM (≈ 32 µg/mL) | MIC [26]: 2 µM (≈ 4.85 µg/mL) | MIC [27]: 26.4 µM (≈ 64 µg/mL) | MIC (Enterococcus faecium): 1.65 µM (≈ 4 µg/mL) | MIC [28]: 0.825 µM (≈ 2 µg/mL) | MIC [29]: 26.4 µM (≈ 64 µg/mL) | MIC (Enterococcus faecalis A4): 1.65 µM (≈ 4 µg/mL) | MIC [30]: 8 µM (≈ 19.4 µg/mL) | MIC [31]: 1.65 µM (≈ 4 µg/mL) | MIC [32]: 26.4 µM (≈ 64 µg/mL)
Compound: CC[C@H](C)[C@H](NC(=O)[C@H](C)NC(=O)[C@@H](NC(=O)[C@@H]1CCCN1C(=O)[C@H](CCCN=C(N)N)NC(=O)[C@H](CCCCN)NC(=O)[C@H](CO)NC(=O)[C@@H](NC(=O)[C@H](CC(C)C)NC(=O)[C@@H](NC(=O)[C@H](CCCN=C(N)N)NC(=O)[C@@H](NC(=O)[C@H](CC(C)C)NC(=O)[C@@H](N)CCCN=C(N)N)C(C)C)[C@@H](C)CC)C(C)C)C(C)C)C(=O)N[C@@H](CCCCN)C(=O)N1CCC[C@H]1C(=O)N[C@@H](Cc1ccc(O)cc1)C(=O)N[C@@H](Cc1ccccc1)C(=O)N[C@@H](CCCN=C(N)N)C(=O)N[C@@H](CC(C)C)C(=O)O [RLVRILVSKRPVAIKPYFRL]

MIC (Escherichia coli JW3441): 4 µM (≈ 10.7 µg/mL) | MIC (Escherichia coli JW5831): 4 µM (≈ 10.7 µg/mL) | MIC (Escherichia coli MG1655): 4 µM (≈ 10.7 µg/mL)
Compound: CC[C@H](C)[C@H](NC(=O)[C@H](CCCCN)NC(=O)CNC(=O)[C@H](CC(C)C)NC(=O)[C@H](CC(C)C)NC(=O)[C@H](Cc1cnc[nH]1)NC(=O)[C@H](Cc1ccccc1)NC(=O)[C@@H](N)C(C)C)C(=O)N[C@H](C(=O)N[C@@H](Cc1cnc[nH]1)C(=O)N[C@@H](Cc1cnc[nH]1)C(=O)N[C@H](C(=O)NCC(=O)N[C@@H](CC(N)=O)C(=O)N[C@@H](Cc1ccccc1)C(=O)N[C@H](C(=O)N[C@@H](Cc1ccc(O)cc1)C(=O)NCC(=O)N[C@@H](Cc1ccccc1)C(=O)N[C@@H](CO)C(=O)N[C@@H](Cc1cnc[nH]1)C(=O)N[C@H](C(=O)N[C@@H](Cc1ccccc1)C(N)=O)C(C)C)C(C)C)C(C)C)[C@@H](C)CC [VFHLLGKIIHHVGNFVYGFSHVF]
